Starred links: 1 amine or outer side, 2 acyl side, 3 side chain; linkers in the order of their positions; H or OH if unused. Positions of bridges follow the written chain, without caps; N, C: chain ends. Non-standard residues stand in square brackets, D forms with d. Residues, ends and D or L forms follow the SMILES beside them. Chains are numbered I, II in the order given. Actinocin(9to1) = Cc1c2oc3c(C)ccc(C(=O)[*:1])c3nc-2c(C(=O)[*:2])c(N)c1=O; NMeV = CN[C@H](C(=O)O)C(C)C; Sar = CNCC(=O)O
What was measured:
[1] = tested on: NRF2, GCLC, ER stress markers; test: Western blot of NRF2, GCLC and ER stress markers; type: cell-based; details: for NRF2 and GCLC protein levels: MEFs, MDA-MB231, MCF-7, 8-12 h; for immunocontent of ER stress markers: cancer cells, 24 h; for effect on MMS-induced NRF2 activation: CHX 1 μg/mL, Actinomycin D 5 μg/mL, NAC 7.5 mM
Procedure: Western blot. Protein lysates were prepared using RIPA buffer containing 5% sodium deoxycholate, 0.1% SDS, 0.1% Igepal in PBS with a cocktail of protease and phosphatase inhibitors (1 mM PMSF, 1 mM sodium orthovanadate, 1 mM NaF, and 30 μL/mL aprotinin (Sigma-Aldrich, USA)) and clarified by centrifugation. Protein concentration was determined using Bradford Protein Assay Reagent (Biorad, Hercules, Calif.). Equal amounts of protein were resolved using 8-12% SDS polyacrylamide gel, transferred onto nitrocellulose membranes (Hybond-ECL, GE Healthcare Lifesciences, Piscataway, N.J.) and detected using Lumiglo system (Cell Signaling Technology, Calif.) and x-ray films. Primary antibodies included COX-2 (#4842), NRF2 (D1C9), p-JNK1/2 (Thr183/Tyr185, #4671), p-p38 (Thr180/Tyr182, #9216), p-ERK1/2 (Thr202/Tyr204, #9101), BiP/GRP78 (C50B12), IRE1a (14C10), CHOP (L63F7) and PERK (D11A8) from Cell Signaling Technology; p-IRE1a (Ser724; NB100-2323) from Novus Biologicals; GCLC (Ab41463), beta-actin (ab8227) and ATF6 (Ab37149) from Abcam; p-PERK (Thr 981, sc-32577) and ATF3 (C19) were purchased from Santa Cruz. All primary antibodies were used at 1:1000 dilutions and secondary antibodies were 1:3000 in TBS-T with 5% BSA.

[2] = tested on: IL8, MMP1, MMP3 and PGE2; test: ELISA of inflammatory mediators in culture medium; type: cell-based, human; details: for production of IL-8, MMP-1 and MMP-3: MDA-MB231 culture medium; for prostaglandin E2 (PGE2) in culture medium and COX-2 protein in lysates: human cancer cells, 12 h
Procedure: (§1) Quantification of MMP1 and MMP3 content in culture medium was assessed using RayBio-MMP3 and RayBio-MMP1 Elisa Kit (RayBiotech, Inc); IL8 was analyzed by Human IL-8 Elisa kit (Pierce Biotechnology). The levels of prostaglandin E2 (PGE2) were determined using the Prostaglandin E2 EIA Kit Monoclonal (Cayman Chemical Company). Culture media were diluted to fit within the standard curves. For conditioned media (CM) preparation for invasion and in vitro angiogenesis experiments, 12-well plated cells were treated with MMS (or MMS plus inhibitors) for 8 h in the presence of 10% FBS, twice washed with HBSS, and incubated with 700 μL drug/serum-free fresh medium for additional 12 h. Thereafter, the conditioned fresh medium was collected and directly used for migration and invasion experiments in order to reduce freezing associated loss of activity.

[3] = tested on: Intracellular ROS production; test: Real-time ROS production (DCF assay); type: cell-based; details: for ROS production, agent alone: BSO 2.5 mM, CDDP 75 μM, TMZ 1.5 mM, 4HC 75 μM, 12 h
Procedure: Intracellular ROS production was detected using DCFH-DA probe (Sigma) (Zanotto-Filho et al., 2010, Cancer Lett 288, 192-203). This reagent enters the cells and reacts predominantly with highly oxidizing species of ROS, such as hydroxyl radicals, hydroperoxides, and peroxynitrite, thus producing the fluorophore DCF. Briefly, cells were seeded in black-edge clear bottom 96-well plates. After reaching 70% confluence, medium was changed and cells were incubated with 20 μM DCFH-DA dissolved in medium containing 0.5% FBS. After 1 h pre-incubation to allow DCFH-DA uptake, treatments were added to its respective final concentrations and DCF fluorescence was monitored at 0.5, 1, 3, 8, 12, 16 and 24 h in a fluorescence reader (Ex/Em=485/532 nm). Hydrogen peroxide was used as a positive control and N-acetylcysteine (NAC), GSH-ethyl-ester (GSH-E) and Trolox were used as antioxidant standards. As a control, at the end of 24 h, cell viability was assessed and compared to wells in the absence of DCFH-DA.

[4] = tested on: NFκB-responsive firefly luciferase construct in MDA-MB231 cells; test: NFκB gene reporter assay; type: cell-based, human; details: MDA-MB231, pre-incubation with inhibitor
Procedure: (§2) Prior to transfection, cells were plated in 96-well plates to 80-90% confluence (100 μL antibiotic free-medium) after 24 h. When used, siRNA were incubated by reverse transfection during cells seeding. […] A mixture of non-inducible firefly luciferase construct and constitutively expressing Renilla luciferase construct (40:1) were used as negative controls. Approximately 24 h post-transfection, the medium was changed and the cells were treated for 12 h with alkylating agents (with/out 6 h pre-treatments). At the end of this period, medium was changed to drug-free fresh medium (to minimize the effect of alkylating toxicity on promoters activity) and cells were kept for an additional 12 h.

[5] = tested on: human endothelial cells; test: In vitro angiogenesis (Angiophase kit, CD31); type: cell-based; details: direct incubation
Procedure: as §1
The Angiophase kit (MBL Inc.) was used to assess the angiogenic potential of conditioned media (CM) from breast cancer cells or the direct effect of pharmaceutical inhibitors (free-drug system) on vessel-like structures formation in vitro. With this kit, human endothelial cells are co-cultured in a specially designed medium to form threadlike tubule structures. These gradually join up to form a network of anastomosing tubules, which resemble the capillary bed found in the CAM assay. Kit-provided cryopreserved co-culture of human endothelial cells were plated and kept for 96 h (proliferative phase) without treatments. Afterwards, the cells were maintained in the presence of conditioned medium from alkylating agent treated cells or control medium for a total of 14 days (angiogenic/vasculogenic phase). Medium was changed each 2 days. At the end of treatments, the cells were fixed and immune-stained for CD31 (PECAM-1), following by incubation with secondary antibody conjugate. ELISA was developed using the soluble substrate p-nitrophenyl-phosphate (p-NPP) whose product was colorimetrically read at 405 nm. After ELISA assays, the wells were washed with dH2O and tubule staining was performed by incubating CD31-stained tubules with the substrate BCIP/NBT, which form insoluble precipitates. Tubules were counted and photographed for qualitative monitoring.

[6] = tested on: AP1-responsive firefly luciferase construct in MDA-MB231 cells; test: AP-1 gene reporter assay; type: cell-based, human; details: MDA-MB231, pre-incubation with inhibitor
Procedure: as §2

[7] = tested on: Kc167 cells, MEFs, and MDA-MB231 breast cancer cells; test: Cell viability (CellTiter-Glo); type: cell-based, D. melanogaster, mouse, human; details: pre-incubation, then MMS; all cell types tested; 48 h
Procedure: The D. melanogaster embryonic cell line Kc167 was grown in Schneider medium (Invitrogen, Carlsbad, Calif.) supplemented with 10% heat-inactivated (56° C./30 min) fetal bovine serum (FBS), penicillin and streptomycin at 22° C. in a humidified incubator. Primary MEFs were obtained by harvesting 14.5-day C57BL/6J embryos as previously described (Ravi et al., 2009, PLoS Genet 5, e1000527). Briefly, fetal liver and head were removed and the remainder of the embryo was mechanically disaggregated in plating medium. A suspension of single-cells was plated in DMEM (plus 10% FBS, 100 U/mL penicillin and 100 μg/mL streptomycin). MEFs were grown for two passages before freezing aliquots. Aliquots were taken and expanded as needed for each experiment. MDA-MB231, SkBr3 and MCF-7 breast cancer cells lines were obtained from ATCC and grown in DMEM supplemented with 10% inactivated FBS plus antibiotics in a 37° C. humidified incubator at […] atmosphere. Cells were kept and treated in the exponential phase of growing (60-70% confluence). […] DMSO concentrations were kept to a maximum of 0.1% for all experiments. Cell viability was assessed using CellTiter-Glo Luminescent Viability assay (Promega) in 384 or 96-well plates white-border clear-bottom plated cells. For caspase-3/7 activity, Caspase-Glo 3/7 Assay kits were used (Promega). For caspase assays, the cells were seeded in 96-well plates and assayed directly after treatments. Caspase-3/7 inhibitor (Z-DEVD-fmk) was used to ensure assay specificity. LDH release into culture medium was quantified by Cytotox-96 Non-Radioactive assay kit in agreement with instructions (Promega).

[8] = tested on: MDA-MB231 xenograft implants; test: MDA-MB231 xenograft study; type: in vivo, mouse
Source text: The study was approved by the University of Texas Health Science Center at San Antonio Institutional Animal Care and Use Committee (IACUC) policy as outlined in protocol number 11024. The facility is operated in compliance with the Public Law 89-544 (Animal Welfare Act) and its amendments, Public Health Services Policy on Humane Care and Use of Laboratory Animals (PHS Policy) using the Guide for the Care and Use of Laboratory Animals (Guide) as the basis of operation. Selection of cyclophosphamide and sorafenib doses was based on previously published reports (Sun et al., 2010, J Int Med Res 38, 967-76; Wilhelm et al., 2004 Cancer Res 64, 7099-109). MDA-MB-231 cells were harvested by trypsinization, washed and re-suspended in serum-free medium. Thereafter, cells were mixed with matrigel (1:1), and approximately 5×10^6 cells were subcutaneously injected in the right flank of each mouse. When the average tumor volume reached about 100 mm^3, mice were randomized into groups of 8 animals each, and the following treatment protocol was implemented: Group 1 (control): 100 μL of saline (i.p.); Group 2: sorafenib (1 mg/kg; i.p.) for 9 days; Group 3: cyclophosphamide 0.1 g/kg on days 2, 4, 6 and 8; Group 4: Sorafenib+cyclophosphamide (combination of same above described regimens). All animals were sacrificed 5 days after the end of treatments (15th day of the treatment protocol). Body weight of mice was recorded weekly, and tumor size was measured thrice a week in two dimensions using a digital caliper. The tumor volume was calculated by the formula 0.5236 L1(L2)^2, where L1 is the long axis, and L2 is the short axis of the tumor. At the termination of the study, mice were euthanized; tumors were excised and a part was fixed in 10% phosphate-buffered formalin for H&E, Masson's staining and immunohistochemistry (IHC) analyses.

## O=P1(N(CCCl)CCCl)NC(OO)CCO1 (centres unmarked) [4-HC, 4-hydroperoxycyclophosphamide]
[1]
  NRF2 and GCLC protein levels: induced NRF2 and GCLC protein
  immunocontent of ER stress markers: increased the immunocontent of ER stress markers
[2]
  production of IL-8, MMP-1 and MMP-3: increased the production of these molecules
  prostaglandin E2 (PGE2) in culture medium and COX-2 protein in lysates: increased levels of prostaglandin E2 (PGE2)
[3]
  ROS production, agent alone: increased ROS

## Cc1ccc(S(=O)(=O)/C=C/C#N)cc1 [BAY117082]
[4]
  effect on MMS-induced activation of NFκB reporter: blocked

## [NH2][Pt]([NH2])([Cl])[Cl] [CDDP, cisplatin]
[1]
  NRF2 and GCLC protein levels: induced NRF2 and GCLC protein
  immunocontent of ER stress markers: increased the immunocontent of ER stress markers
[2]
  production of IL-8, MMP-1 and MMP-3: increased the production of these molecules
  prostaglandin E2 (PGE2) in culture medium and COX-2 protein in lysates: increased levels of prostaglandin E2 (PGE2)
[3]
  ROS production, agent alone: increased ROS

## CCCCC[C@H](O)/C=C/[C@H]1[C@H](O)CC(=O)[C@@H]1C/C=C\CCCC(=O)O [PGE2, prostaglandin E2]
[5]
  vessel-like structure formation, purified factor: angiogenic

## C[S+]([O-])c1ccc(-c2nc(-c3ccc(F)cc3)c(-c3ccncc3)[nH]2)cc1 (centres unmarked) [SB203508]
[4]
  effect on MMS-induced activation of NFκB reporter: only blocked the NFκB reporter
[6]
  effect on MMS-induced activation of AP-1 reporter: only blocked the NFκB reporter

## O=C1c2ccccc2-c2n[nH]c3cccc1c23 [SP600129]
[6]
  effect on MMS-induced activation of AP-1 reporter: blocked

## Cc1c(C)c2c(c(C)c1O)CCC(C)(C(=O)O)O2 (centres unmarked) [Trolox]
[7]
  effect on MMS toxicity: had no effect
[3]; Trolox 200 μM, NAC 7.5 mM, GSH-E 10 mM
  effect on ROS levels: reduced ROS below levels of the control

## Cc1c2oc3c(C)ccc(C(=O)N[C@@H]4C(=O)N[C@H](C(C)C)C(=O)N5CCC[C@H]5C(=O)N(C)CC(=O)N(C)[C@@H](C(C)C)C(=O)O[C@@H]4C)c3nc-2c(C(=O)N[C@@H]2C(=O)N[C@H](C(C)C)C(=O)N3CCC[C@H]3C(=O)N(C)CC(=O)N(C)[C@@H](C(C)C)C(=O)O[C@@H]2C)c(N)c1=O [actinomycin D] (I: T[dV]P[Sar][NMeV] / II: T[dV]P[Sar][NMeV]; ester I:1-I:C, II:1-II:C; linker I:N-II:N via Actinocin(9to1))
[1]
  effect on MMS-induced NRF2 activation: blocked NRF2 activation

## C[C@@H]1C[C@@H]([C@H](O)CC2CC(=O)NC(=O)C2)C(=O)[C@@H](C)C1 [cycloheximide]
[1]
  effect on MMS-induced NRF2 activation: blocked NRF2 activation

## O=P1(N(CCCl)CCCl)NCCCO1 (centres unmarked) [cyclophosphamide]
[8]; cyclophosphamide alone
  collagen deposition (wound healing phenotype): spreading areas of collagen deposition
[8]; cyclophosphamide alone vs untreated
  tumor microvessels (histology, CD31): increased number of niches of microvessels
[8]; sorafenib 1 mg/kg i.p. 9 days, cyclophosphamide 0.1 g/kg days 2, 4, 6, 8
  tumor growth, single agent: reduced tumor size

## VEGF
[5]
  vessel-like structure formation, purified factor: angiogenic
